This note sets out measurements from paper PMC5380162, “Characterization of a novel N-acetylneuraminic acid lyase favoring N-acetylneuraminic acid synthesis” (Scientific Reports, 2015).

Assay type in all cases: biochemical
Experiment [1] has as its target T1, CgNal (Corynebacterium glutamicum, UniProt Q8NMD2).
T1 construct: gene Cgl2646; full length 312 aa (939 bp ORF), pET-28a(+), N-terminal His6-tag, E. coli Rosetta (DE3) pLysS, ~33 kDa, Ni-NTA; NAL family homotetramer
Description: HPLC of substrates and products, Neu5Ac synthesis. To be noted: 0.1 M Tris-HCl pH 7.5, assay at 37 °C, synthesis direction. The text has this:
HPLC of substrates and products, Neu5Ac synthesis on CgNal

Experiment [2] deals with T2, EcDHDPS (Escherichia coli, UniProt P0A6L2).
T2 construct: gene dapA; dapA amplified from E. coli genomic DNA into pET-28a(+), expressed in E. coli Rosetta, Ni-NTA
T2 sequence (P0A6L2 1-292): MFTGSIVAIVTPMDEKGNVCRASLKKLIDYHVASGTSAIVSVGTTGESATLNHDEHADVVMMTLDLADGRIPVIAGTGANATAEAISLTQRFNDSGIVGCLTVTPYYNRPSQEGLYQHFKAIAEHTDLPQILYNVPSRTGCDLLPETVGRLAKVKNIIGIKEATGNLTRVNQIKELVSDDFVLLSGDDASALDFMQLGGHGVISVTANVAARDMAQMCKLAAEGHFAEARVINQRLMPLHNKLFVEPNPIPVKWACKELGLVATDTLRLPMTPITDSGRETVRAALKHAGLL
As to the kind of experiment: coupled enzymatic assay (Yugari and Gilvarg). To be noted: co-substrate pyruvate.

For experiment [3], the target named is T1, CgNal. As to the kind of experiment: HPLC of substrates and products, Neu5Ac cleavage. To be noted: read-out: Neu5Ac Cleavage / Neu5Ac / Km; 0.1 M Tris-HCl pH 7.5, assay at 37 °C; cleavage direction. The text has this: HPLC of substrates and products, Neu5Ac cleavage on CgNal

T1 sequence (Q8NMD2 entry or part of it): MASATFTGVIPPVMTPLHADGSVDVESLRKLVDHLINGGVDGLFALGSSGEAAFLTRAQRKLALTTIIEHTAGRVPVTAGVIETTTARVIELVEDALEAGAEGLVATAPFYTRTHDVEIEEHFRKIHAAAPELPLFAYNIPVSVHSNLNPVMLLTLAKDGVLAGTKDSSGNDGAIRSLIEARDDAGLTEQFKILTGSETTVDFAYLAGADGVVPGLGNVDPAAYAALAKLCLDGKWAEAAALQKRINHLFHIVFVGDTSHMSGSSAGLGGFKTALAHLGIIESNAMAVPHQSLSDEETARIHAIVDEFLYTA

`CC(=O)C(=O)O` [pyruvate]: the Km in experiment [1] (read-out: Neu5Ac Synthesis / Pyruvate / Km, ManNAc fixed at 50 mM) is 14.7 mM.

Regarding `N[C@@H](CC=O)C(=O)O` [ASA], in experiment [2], the “coupled enzymatic assay (Yugari and Gilvarg)” value is given as “Using ASA as substrate, CgNal showed only half the activity of EcDHDPS”.

As for `CC(=O)N[C@@H]1C(O)O[C@H](CO)[C@@H](O)[C@@H]1O` (stereo partly shown) [ManNAc], the Km in experiment [1] (read-out: Neu5Ac Synthesis / ManNAc / Km, pyruvate fixed at 100 mM) came to 53.3 mM. For `CC(=O)N[C@H]1[C@H]([C@H](O)[C@H](O)CO)OC(O)(C(=O)O)C[C@@H]1O` (stereo partly shown) [Neu5Ac], the Km in experiment [3] was found to be 33.5 mM.
